Experimental data reported in patent US10111902B2, “Polymers for reversing heparin-based anticoagulation” (University of British Columbia, priority 2011, dated 2018).

Tests used:
ctDNA = test: Binding affinity of polymers for ctDNA; conditions: buffered water (pH 7.2), 50 mM NaCl, 25° C
blood = test: Blood compatibility at 1 mg/ml; conditions: footnote [3] to protamine: showed complement activation, platelet activation, behaved like an anticoagulant, massive hemolysis

- C50 (nM) [1] (ctDNA): 2788 nM
SMILES: NCCCNCCCCNCCCN [Tetramine (spermine), spermine]
- Blood compatibility at 1 mg/ml (blood): poor
